Source: US20100204464A1, “ASCORBIC ACID DERIVATIVES, THEIR PREPARATION METHODS, INTERMEDIATES AND USES IN COSMETICS” (NANJING ZHONGSHI CHEMICAL CO., LTD., priority 2007, published 2010)
Blank lines part the entries; values can stand above or below the compound they belong to.

Tests used:
tyrosinase = molecular target: T1, tyrosinase (Mus musculus, UniProt P11344); assay: Activity of tyrosinase of B16F10 melanoma cells (L-DOPA, absorbance 490 nm); assay type: cell-based, murine; details: for Activity of tyrosinase of B16F10 melanoma cell (Mean ± SE): 6 days, control = 100%
T1 construct: endogenous in cells; host or cells: B16F10 murine melanoma cells
T1 sequence (P11344 19-533): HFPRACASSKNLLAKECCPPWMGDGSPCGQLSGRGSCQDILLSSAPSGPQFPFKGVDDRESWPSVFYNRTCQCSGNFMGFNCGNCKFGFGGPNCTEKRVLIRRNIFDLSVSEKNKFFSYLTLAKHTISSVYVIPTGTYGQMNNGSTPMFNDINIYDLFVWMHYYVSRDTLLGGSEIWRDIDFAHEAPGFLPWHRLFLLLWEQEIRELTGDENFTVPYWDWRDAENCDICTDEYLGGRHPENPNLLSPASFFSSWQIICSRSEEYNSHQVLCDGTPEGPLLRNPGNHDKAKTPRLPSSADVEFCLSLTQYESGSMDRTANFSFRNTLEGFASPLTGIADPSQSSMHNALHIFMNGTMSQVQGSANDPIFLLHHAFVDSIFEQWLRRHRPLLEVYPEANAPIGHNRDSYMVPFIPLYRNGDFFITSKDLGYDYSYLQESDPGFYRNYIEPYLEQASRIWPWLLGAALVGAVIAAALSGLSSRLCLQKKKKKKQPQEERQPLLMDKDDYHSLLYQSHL
Description: (§1) The effects of preventing melanin from deposition (whitening effects) of 3-O-glycosyl-L-ascorbic acid and 2-O-α-D-glucopyranosyl-L-ascorbic acid (AA-2G) were evaluated by using B16F10 murine melanoma cells. […] The experimental method comprising:
B. Experiment for determining the activity of tyrosinase: to investigate through cell culture the influence of each sample on the activity of tyrosinase playing an important role in the formation of melanin.
B16F10 cells were seeded in the 96-well plate respectively at a density of 5*10^3/well, and incubated under 5% CO2 and at 37° C. for 24 hour, then the supernatant was removed and to each well was added 100 μL culture medium containing different concentration of medicine to be screened and for blank control group, only culture medium was added. Each group was in quadruplicate and the culture medium was renewed every other day. After being incubated for 6 days, each well was washed by PBS without Ca^2+ and Mg^2+, and then 100 μL Triton-X solution (0.5%) was added to each well. After being vibrated in ultrasound for 30 minutes, 50 μL L-DOPA solution (10 mM/L) was added to each well and the samples was kept at 37° C. for 3 hours. The absorbance of each well was measured at a wavelength of 490 nm (reference wavelength: 620 nm) by enzyme-label instrument. Influence rate of the activity of tyrosinase=(average absorbance of the group of medicine to be screened)/(average absorbance of control group)*100%

B16F10 cells [1] = assay: Quantitative analysis of the content of melanin of B16F10 cells; assay type: cell-based, murine; details: for Content of melanin of B16F10 cells (Mean ± SE): 6 days, blank control = 100%
Description: as §1
D. Quantitative analysis of the content of melanin.
B16F10 cells were seeded in φ 60 mm culture mediums, and incubated under 5% CO2 and at 37° C. for 24 h, then the supernatant was removed and to each medium was added culture medium containing different concentration of medicine and for control group, only culture medium was added. Each group was in triplicate and the culture medium was renewed every other day. After being incubated for 6 days, the cells were digested by 0.25% trypsin/EDTA and collected, then washed by PBS twice. The cells of each group were counted and 0.2 mL redistilled water was added to make the cells suspended for 1 min respectively, then the mixture of 500 μL ethanol and 500 μL ether was added. The cells were placed at room temperature for 15 min and centrifuged at a rate of 3000 rpm for 5 min, then the supernatant was removed and 1 ml NaOH (1 mol/L, containing 10% DMSO) was added to the precipitate. After being placed at 80° C. for 30 min, 4 mL redistilled water was added to dilute the concentration of NaOH to 0.2 mol/L. The absorbance of each group was measured at a wavelength of 475 nm (reference wavelength: 620 nm) by spectrophotometer. The content of melanin=[(absorbance of the group of medicine to be screened/average amount of cells)/(average absorbance of control group/average amount of cells)]*100%

[2] = test system: B16F10 murine melanoma cells; assay: MTT experiment: multiplication of melanoma cells; assay type: cell-based; details: for Multiplication rate of melanoma cell (MTT method, Mean ± SE): 72 h, blank control = 100%; for Concentration at which multiplication of B16F10 cells was significantly inhibited / Concentration with no influence on the multiplication of B16F10 cells: MTT experiment
Description: as §1
A. MTT experiment: to investigate the influence of each sample on the multiplication of B16F10 murine melanoma cell through cell culture.
All cells were seeded in the 96-well plate respectively at a density of 1*10^4/well, and incubated under 5% CO2 and at 37° C. for 24 h, then the supernatant was removed and to each well was added […] culture medium containing a certain concentration of medicine. Three concentrations, high, middle and low, were set for each medicine, each concentration in quadruplicate wells. For control group, 200 μL culture medium was directly added and incubated for 72 h. 20 μL MTT solution (5 g/L) was added to each well and the sample was incubated under 5% CO2 and at 37° C. for 4 h, then the supernatant was removed and to each well was added 150 μL DMSO. The sample was vibrated for 10 min and the absorbance of each well was measured at a wavelength of 490 nm (reference wavelength: 620 nm) by enzyme-label instrument. Cell multiplication rate=(average absorbance of each concentration of medicine to be screened)/(average absorbance of control group)*100%.

[3] = Stability of aqueous solutions stored 3 months, content by HPLC and color; assay type: physicochemical; details: for Color, in words / Content (HPLC), in words: 10%, 5% and 1.0% aqueous solutions; for Content (HPLC): initial content 98%
Description: In the comparative experiment of stability between 3-O-lactosyl-L-ascorbic acid and 2-O-α-D-glucopyranosyl-L-ascorbic acid (AA-2G), both compounds were prepared as 10%, 5% and 1.0% aqueous solutions respectively and were placed at 0° C., 25° C. and […] respectively for 3 months.

B16F10 cells [4] = assay: DOPA staining of B16F10 cells (qualitative melanin/tyrosinase); assay type: cell-based, murine; details: 6 days, 0.5% L-DOPA, photos under microscope
Description: as §1
Each group was in quadruplicate and the culture medium was renewed every other day.

Activity of tyrosinase of B16F10 melanoma cell (Mean ± SE) (tyrosinase; 1.0 mM): 50.02 ± 4.04 %
Activity of tyrosinase of B16F10 melanoma cell (Mean ± SE) (tyrosinase; 2.5 mM): 38.07 ± 1.78 %
Activity of tyrosinase of B16F10 melanoma cell (Mean ± SE) (tyrosinase; 5.0 mM): 20.53 ± 1.02 %
SMILES: OC[C@H]1O[C@@H](Oc2ccc(O)cc2)[C@H](O)[C@@H](O)[C@@H]1O [Arbutin]
Content of melanin of B16F10 cells (Mean ± SE) (B16F10 cells [1]; 1.0 mM): 50.12 ± 1.97 %
Content of melanin of B16F10 cells (Mean ± SE) (B16F10 cells [1]; 2.5 mM): 36.61 ± 2.15 %
Content of melanin of B16F10 cells (Mean ± SE) (B16F10 cells [1]; 5.0 mM): 20.53 ± 1.02 %
Multiplication rate of melanoma cell (MTT method, Mean ± SE) ([2]; 1.0 mM): 113.57 ± 5.57%
Multiplication rate of melanoma cell (MTT method, Mean ± SE) ([2]; 5.0 mM): 102.94 ± 3.64%
Multiplication rate of melanoma cell (MTT method, Mean ± SE) ([2]; 10.0 mM): 76.94 ± 6.08%
Multiplication rate of melanoma cell (MTT method, Mean ± SE) ([2]; 20.0 mM): 46.15 ± 3.41 %

SMILES: O=c1cc(CO)occ1O [Kojic acid]
Content of melanin of B16F10 cells (Mean ± SE) (B16F10 cells [1]; 1.0 mM): 37.20 ± 4.33 %
Content of melanin of B16F10 cells (Mean ± SE) (B16F10 cells [1]; 2.5 mM): 24.15 ± 1.88 %
Content of melanin of B16F10 cells (Mean ± SE) (B16F10 cells [1]; 5.0 mM): 17.65 ± 1.42 %
Multiplication rate of melanoma cell (MTT method, Mean ± SE) ([2]; 1.0 mM): 92.20 ± 8.28%
Multiplication rate of melanoma cell (MTT method, Mean ± SE) ([2]; 5.0 mM): 63.23 ± 3.66%
Multiplication rate of melanoma cell (MTT method, Mean ± SE) ([2]; 10.0 mM): 43.10 ± 2.31 %
Multiplication rate of melanoma cell (MTT method, Mean ± SE) ([2]; 20.0 mM): 43.55 ± 7.36 %

Color, in words ([3]; 0° C.): colorless
Content (HPLC), in words ([3]; 0° C.): almost unchanged
Color, in words ([3]; 25° C. and 45° C.): obviously yellow
Content (HPLC), in words ([3]; 25° C. and 45° C.): decreased
Activity of tyrosinase of B16F10 melanoma cell (Mean ± SE) (tyrosinase; 1.0 mM): 95.99 ± 2.01%
Activity of tyrosinase of B16F10 melanoma cell (Mean ± SE) (tyrosinase; 2.5 mM): 92.40 ± 0.94%
Activity of tyrosinase of B16F10 melanoma cell (Mean ± SE) (tyrosinase; 5.0 mM): 69.90 ± 1.733 %
Inhibiting effect on the activity of tyrosinase (tyrosinase; rather weaker than 3-O-lactosyl-L-ascorbic acid): a certain inhibiting effect
SMILES: O=C1O[C@H]([C@@H](O)CO)C(O)=C1O[C@H]1O[C@H](CO)[C@@H](O)[C@H](O)[C@H]1O [VC derivative 1, 2-O-α-D-glucopyranosyl-L-ascorbic acid]
Effect of inhibiting the synthesis of melanin (B16F10 cells [1]): relatively weak
Content of melanin of B16F10 cells (Mean ± SE) (B16F10 cells [1]; 1.0 mM): 96.37 ± 3.63%
Content of melanin of B16F10 cells (Mean ± SE) (B16F10 cells [1]; 2.5 mM): 91.11 ± 1.82%
Content of melanin of B16F10 cells (Mean ± SE) (B16F10 cells [1]; 5.0 mM): 84.19 ± 1.85%
Multiplication rate of melanoma cell (MTT method, Mean ± SE) ([2]; 1.0 mM): 108.66 ± 9.32%
Multiplication rate of melanoma cell (MTT method, Mean ± SE) ([2]; 5.0 mM): 100.98 ± 14.79%
Multiplication rate of melanoma cell (MTT method, Mean ± SE) ([2]; 10.0 mM): 43.21 ± 7.40 %
Multiplication rate of melanoma cell (MTT method, Mean ± SE) ([2]; 20.0 mM): 8.17 ± 0.46 %
Concentration at which multiplication of B16F10 cells was significantly inhibited [2]: ≥ 5.0 mM
Concentration with no influence on the multiplication of B16F10 cells [2]: lower than 5.0 mM

Color ([3]; 1% aqueous solution, 0 °C): Colorless
Content (HPLC) ([3]; 1% aqueous solution, 0 °C): 98%
Color ([3]; 1% aqueous solution, 25 °C): Colorless
Content (HPLC) ([3]; 1% aqueous solution, 25 °C): 98%
Color ([3]; 1% aqueous solution, 45 °C): Slight
Content (HPLC) ([3]; 1% aqueous solution, 45 °C): 96%
Color ([3]; 5% aqueous solution, 0 °C): Colorless
Content (HPLC) ([3]; 5% aqueous solution, 0 °C): 98%
Color ([3]; 5% aqueous solution, 25 °C): Colorless
Content (HPLC) ([3]; 5% aqueous solution, 25 °C): 98%
Color ([3]; 5% aqueous solution, 45 °C): Slight
Content (HPLC) ([3]; 5% aqueous solution, 45 °C): 96%
Color ([3]; 10% aqueous solution, 0 °C): Colorless
Content (HPLC) ([3]; 10% aqueous solution, 0 °C): 98%
Color ([3]; 10% aqueous solution, 25 °C): Colorless
Content (HPLC) ([3]; 10% aqueous solution, 25 °C): 98%
Color ([3]; 10% aqueous solution, 45 °C): Slight
Content (HPLC) ([3]; 10% aqueous solution, 45 °C): 94%
Color, in words ([3]; 0° C.): colorless
Content (HPLC), in words ([3]; 0° C.): almost unchanged
Color, in words ([3]; 25° C. and 45° C.): colorless
Content (HPLC), in words ([3]; 25° C. and 45° C.): changed little
Activity of tyrosinase of B16F10 melanoma cell (Mean ± SE) (tyrosinase; 1.0 mM): 51.01 ± 2.71 %
Activity of tyrosinase of B16F10 melanoma cell (Mean ± SE) (tyrosinase; 2.5 mM): 36.19 ± 2.98 %
Activity of tyrosinase of B16F10 melanoma cell (Mean ± SE) (tyrosinase; 5.0 mM): 20.68 ± 1.34 %
Inhibition of tyrosinase activity compared with kojic acid (tyrosinase; high concentration group (5.0 mM)): no statistical difference
Inhibition of the activity of tyrosinase (tyrosinase; high, middle and low concentrations (5.0 mM, 2.5 mM and 1.0 mM)): significantly inhibited
Inhibition of tyrosinase activity compared with kojic acid (tyrosinase; middle and low concentration groups (2.5 mM, 1.0 mM)): weaker
Inhibition of tyrosinase activity compared with arbutin (tyrosinase; three concentration groups (5.0, 2.5, 1.0 mM)): no statistical difference
SMILES: O=C1O[C@H]([C@@H](O)CO)C(OC2O[C@H](CO)[C@@H](O[C@@H]3O[C@H](CO)[C@H](O)[C@H](O)[C@H]3O)[C@H](O)[C@H]2O)=C1O (stereo partly drawn) [VC derivative 2, 3-O-(D-lactosyl)-L-ascorbic acid]
Content of melanin of B16F10 cells (Mean ± SE) (B16F10 cells [1]; 1.0 mM): 51.01 ± 2.71 %
Content of melanin of B16F10 cells (Mean ± SE) (B16F10 cells [1]; 2.5 mM): 30.08 ± 3.77 %
Content of melanin of B16F10 cells (Mean ± SE) (B16F10 cells [1]; 5.0 mM): 22.24 ± 1.80 %
Inhibiting melanin synthesis compared with kojic acid and arbutin (B16F10 cells [1]; at the same concentration): no statistical difference
Multiplication rate of melanoma cell (MTT method, Mean ± SE) ([2]; 1.0 mM): 72.67 ± 10.59%
Multiplication rate of melanoma cell (MTT method, Mean ± SE) ([2]; 5.0 mM): 79.34 ± 3.99%
Multiplication rate of melanoma cell (MTT method, Mean ± SE) ([2]; 10.0 mM): 76.56 ± 7.67%
Multiplication rate of melanoma cell (MTT method, Mean ± SE) ([2]; 20.0 mM): 66.67 ± 5.48 %
Concentration at which multiplication of B16F10 cells was significantly inhibited [2]: ≥ 10.0 mM
Concentration with no influence on the multiplication of B16F10 cells [2]: lower than 10.0 mM
Degree of DOPA staining compared with blank control group (B16F10 cells [4]): lower degree of staining
